# Several values for one entry are separate records, joined by “and”; a condition that tells them apart may be missing. Equal entries are not always repeated. Where two headings read alike, the source gives them in different places.
# What was measured:
# IF2-bound 30S IC = molecular target: T1, IF2-bound 30S IC (Escherichia coli, UniProt P0A705); test: 30S IC formation by MST, guanosine nucleotide titration; assay type: binding;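 for MST Average: lower thermophoresis signal means Bpy-tRNAi dissociation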;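 for MST Replicates (a.u.): lower thermophoresis signal means Bpy-tRNAi dissociation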
# T1 construct: 6xHis (N); made in house
# Source text: To monitor the interaction of initiator tRNA and 30S ribosomal subunits, we used Microscale Thermophoresis (MST) with a fluorescently labelled initiator tRNA (Bpy-tRNAi) (Fig 1B). MST allows to measure fluorescence in a constrained space. Changes on the readout derive from molecular drifts resulting from small thermal equilibrium perturbations. Upon equilibrium perturbations, the patterns of Bpy-tRNAi migration away from the observation space are related to bound and unbound states (Fig 1B). […] On the contrary, a decrease in thermophoresis indicated the dissociation of Bpy-tRNAi. The relation between fluorescence measured at both equilibriums (Ff to Fi, after and prior to the perturbation, respectively) as a function of ligand concentration allowed to determine dissociation constants of the interaction (Fig 1C).
# Continuous lines indicate nonlinear regression fittings with a quadratic equation. Three measurements were performed; mean and standard deviation are plotted (S1 Data). (B) as (A) to measure the concentration dependence for each tested guanosine nucleotide at constant IF2 (1 μM). […] Continuous lines show best fits using exponential functions. (D) Formation of 70S IC as measured by Bpy-tRNAi accommodation in the P site of the ribosome; 0.1 μM 30S ICs were formed with Bpy-tRNAi and rapidly mixed with 0.3 μM 50S subunits on a stopped-flow apparatus as described in [14]. Colors are as in (C). Continuous lines show best fits using an exponential function for a single reaction step. Each stopped-flow trace results from the mean of 5 to 7 replicates.
# MST was calculated from the respective fluorescence time dependencies (S3 Fig). […] Symbols as in (B). […] Continuous lines indicate nonlinear regression fittings with quadratic (B and E) or same-site competition (G) functions. Three measurements were performed; mean and standard deviations are plotted (S1 Data).
# IF2 = molecular target: T2, IF2 (Escherichia coli, UniProt P0A705); test: IF2-Bpy-tRNAi-GNP ternary complex formation by MST; assay type: binding; settings: S2A Fig
# T2 construct: 6xHis (N); made in house
# Protocol: Supplementary file pbio.3000593.s002.pdf: S2 Fig IF2-Bpy-tRNAi complex formation as a function of guanosine nucleotides. (A) IF2 concentration dependencies for Bpy-tRNAi binding in the presence of 0.5 mM of the indicated guanosine nucleotides to build IF2-tRNA-GNP ternary complexes (TCs). […] Three to five measurements were performed; mean and standard deviation are plotted (S1 Data). […] (PDF) Click here for additional data file.
# T2 sequence (P0A705 whole entry): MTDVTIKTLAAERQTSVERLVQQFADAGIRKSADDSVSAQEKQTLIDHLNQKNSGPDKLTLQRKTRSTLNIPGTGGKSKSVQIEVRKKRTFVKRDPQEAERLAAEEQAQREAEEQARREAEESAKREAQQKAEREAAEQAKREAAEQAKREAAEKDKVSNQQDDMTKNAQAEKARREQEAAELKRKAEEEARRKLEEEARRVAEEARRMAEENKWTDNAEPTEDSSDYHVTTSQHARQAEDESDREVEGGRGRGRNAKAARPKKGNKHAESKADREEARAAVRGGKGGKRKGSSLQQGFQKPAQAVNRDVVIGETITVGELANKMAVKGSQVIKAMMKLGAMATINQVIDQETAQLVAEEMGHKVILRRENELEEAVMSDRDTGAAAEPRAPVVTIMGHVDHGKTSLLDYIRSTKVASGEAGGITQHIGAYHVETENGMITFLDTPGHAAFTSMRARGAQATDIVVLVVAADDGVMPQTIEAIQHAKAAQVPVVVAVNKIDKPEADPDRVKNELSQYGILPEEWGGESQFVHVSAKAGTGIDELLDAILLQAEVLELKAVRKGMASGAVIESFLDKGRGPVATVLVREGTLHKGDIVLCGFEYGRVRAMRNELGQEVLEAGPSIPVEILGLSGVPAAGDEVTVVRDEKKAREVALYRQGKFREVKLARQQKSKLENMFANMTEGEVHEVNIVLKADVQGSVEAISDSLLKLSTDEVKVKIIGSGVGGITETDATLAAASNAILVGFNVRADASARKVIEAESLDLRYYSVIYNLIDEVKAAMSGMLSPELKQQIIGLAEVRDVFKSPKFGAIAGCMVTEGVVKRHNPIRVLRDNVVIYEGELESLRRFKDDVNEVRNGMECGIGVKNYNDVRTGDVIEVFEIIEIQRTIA
# T1 sequence (P0A705 whole entry, looked up): as the sequence (P0A705 whole entry) above
smiles,measurement,setting,value
"Nc1nc2c(ncn2[C@@H]2O[C@H](COP(=O)(O)OP(=O)(O)OP(=O)(O)O)[C@@H](O)[C@H]2O)c(=O)[nH]1 [GTP, guanosine triphosphate]",MST Average,"IF2-bound 30S IC; Fig 2B, nucleotide 0.005 µM",931.90 a.u.
same,MST Replicates (a.u.),"IF2-bound 30S IC; Fig 2B, nucleotide 0.005 µM, constant IF2 (1 μM)",929.16 a.u. and 932.86 a.u. and 933.70 a.u.
same,MST Average,"IF2-bound 30S IC; Fig 2B, nucleotide 0.01 µM",935.48 a.u.
same,MST Replicates (a.u.),"IF2-bound 30S IC; Fig 2B, nucleotide 0.01 µM",935.39 a.u. and 935.49 a.u. and 935.55 a.u.
same,MST Average,"IF2-bound 30S IC; Fig 2B, nucleotide 0.02 µM",931.90 a.u.
same,MST Replicates (a.u.),"IF2-bound 30S IC; Fig 2B, nucleotide 0.02 µM",930.17 a.u. and 932.09 a.u. and 933.42 a.u.
same,MST Average,"IF2-bound 30S IC; Fig 2B, nucleotide 0.04 µM",934.94 a.u.
same,MST Replicates (a.u.),"IF2-bound 30S IC; Fig 2B, nucleotide 0.04 µM",935.42 a.u. and 934.45 a.u. and 934.96 a.u.
same,MST Average,"IF2-bound 30S IC; Fig 2B, nucleotide 0.08 µM",940.63 a.u.
same,MST Replicates (a.u.),"IF2-bound 30S IC; Fig 2B, nucleotide 0.08 µM",937.42 a.u. and 941.79 a.u. and 942.68 a.u.
same,MST Average,"IF2-bound 30S IC; Fig 2B, nucleotide 0.16 µM",949.92 a.u.
same,MST Replicates (a.u.),"IF2-bound 30S IC; Fig 2B, nucleotide 0.16 µM",950.95 a.u. and 949.65 a.u. and 949.17 a.u.
same,MST Average,"IF2-bound 30S IC; Fig 2B, nucleotide 0.31 µM",960.63 a.u.
same,MST Replicates (a.u.),"IF2-bound 30S IC; Fig 2B, nucleotide 0.31 µM",959.49 a.u. and 961.54 a.u. and 960.87 a.u.
same,MST Average,"IF2-bound 30S IC; Fig 2B, nucleotide 0.63 µM",975.44 a.u.
same,MST Replicates (a.u.),"IF2-bound 30S IC; Fig 2B, nucleotide 0.63 µM",975.52 a.u. and 975.43 a.u. and 975.39 a.u.
same,MST Average,"IF2-bound 30S IC; Fig 2B, nucleotide 1.25 µM",984.37 a.u.
same,MST Replicates (a.u.),"IF2-bound 30S IC; Fig 2B, nucleotide 1.25 µM",979.99 a.u. and 986.37 a.u. and 986.76 a.u.
same,MST Average,"IF2-bound 30S IC; Fig 2B, nucleotide 2.50 µM",1006.59 a.u.
same,MST Replicates (a.u.),"IF2-bound 30S IC; Fig 2B, nucleotide 2.50 µM",1003.01 a.u. and 1008.37 a.u. and 1008.39 a.u.
same,MST Average,"IF2-bound 30S IC; Fig 2B, nucleotide 5.00 µM",1020.42 a.u.
same,MST Replicates (a.u.),"IF2-bound 30S IC; Fig 2B, nucleotide 5.00 µM",1016.52 a.u. and 1022.52 a.u. and 1022.21 a.u.
same,MST Average,"IF2-bound 30S IC; Fig 2B, nucleotide 10.00 µM",1023.06 a.u.
same,MST Replicates (a.u.),"IF2-bound 30S IC; Fig 2B, nucleotide 10.00 µM",1019.11 a.u. and 1024.56 a.u. and 1025.50 a.u.
same,MST Average,"IF2-bound 30S IC; Fig 2B, nucleotide 20.00 µM",1004.40 a.u.
same,MST Replicates (a.u.),"IF2-bound 30S IC; Fig 2B, nucleotide 20.00 µM",999.60 a.u. and 1006.70 a.u. and 1006.89 a.u.
same,Kd,"IF2-bound 30S IC; KD of GTP for the 30S IC, 30S IC programmed with mInfA",1900 ± 200 nM
same,Kd,"IF2-bound 30S IC; KD of GTP for the 30S IC, 30S IC programmed with mTufA",280 ± 40 nM
same,MST Average,"IF2-bound 30S IC; mInfA, GTP 0.061 μM",967.92 a.u.
same,MST Replicates (a.u.),"IF2-bound 30S IC; mInfA, GTP 0.061 μM",966.87 a.u. and 968.59 a.u. and 968.30 a.u.
same,MST Average,"IF2-bound 30S IC; mInfA, GTP 0.122 μM",967.19 a.u.
same,MST Replicates (a.u.),"IF2-bound 30S IC; mInfA, GTP 0.122 μM",972.17 a.u. and 974.24 a.u. and 955.18 a.u.
same,MST Average,"IF2-bound 30S IC; mInfA, GTP 0.244 μM",974.83 a.u.
same,MST Replicates (a.u.),"IF2-bound 30S IC; mInfA, GTP 0.244 μM",973.77 a.u. and 975.34 a.u. and 975.39 a.u.
same,MST Average,"IF2-bound 30S IC; mInfA, GTP 1.953 μM",1006.13 a.u.
same,MST Average,"IF2-bound 30S IC; mInfA, GTP 3.906 μM",1021.73 a.u.
same,MST Replicates (a.u.),"IF2-bound 30S IC; mInfA, GTP 3.906 μM",1021.53 a.u. and 1022.43 a.u. and 1021.24 a.u.
same,MST Average,"IF2-bound 30S IC; mInfA, GTP 7.812 μM",1043.12 a.u.
same,MST Replicates (a.u.),"IF2-bound 30S IC; mInfA, GTP 7.812 μM",1042.43 a.u. and 1043.93 a.u. and 1042.99 a.u.
same,MST Average,"IF2-bound 30S IC; mInfA, GTP 15.625 μM",1059.58 a.u.
same,MST Replicates (a.u.),"IF2-bound 30S IC; mInfA, GTP 15.625 μM",1058.78 a.u. and 1060.65 a.u. and 1059.32 a.u.
same,MST Average,"IF2-bound 30S IC; mInfA, GTP 31.25 μM",1066.52 a.u.
same,MST Replicates (a.u.),"IF2-bound 30S IC; mInfA, GTP 31.25 μM",1066.71 a.u. and 1066.40 a.u. and 1066.45 a.u.
same,MST Average,"IF2-bound 30S IC; mMF1, GTP 0.061 μM",955.96 a.u.
same,MST Replicates (a.u.),"IF2-bound 30S IC; mMF1, GTP 0.061 μM",954.37 a.u. and 956.60 a.u. and 956.92 a.u.
same,MST Average,"IF2-bound 30S IC; mMF1, GTP 0.122 μM",960.57 a.u.
same,MST Replicates (a.u.),"IF2-bound 30S IC; mMF1, GTP 0.122 μM",957.75 a.u. and 961.91 a.u. and 962.05 a.u.
same,MST Average,"IF2-bound 30S IC; mMF1, GTP 0.244 μM",971.65 a.u.
same,MST Replicates (a.u.),"IF2-bound 30S IC; mMF1, GTP 0.244 μM",968.94 a.u.
same,MST Average,"IF2-bound 30S IC; mMF1, GTP 1.953 μM",1013.90 a.u.
same,MST Average,"IF2-bound 30S IC; mMF1, GTP 3.906 μM",1027.63 a.u.
same,MST Replicates (a.u.),"IF2-bound 30S IC; mMF1, GTP 3.906 μM",1022.88 a.u. and 1029.90 a.u. and 1030.12 a.u.
same,MST Average,"IF2-bound 30S IC; mMF1, GTP 7.812 μM",1034.32 a.u.
same,MST Replicates (a.u.),"IF2-bound 30S IC; mMF1, GTP 7.812 μM",1030.42 a.u. and 1036.20 a.u. and 1036.34 a.u.
same,MST Average,"IF2-bound 30S IC; mMF1, GTP 15.625 μM",1039.20 a.u.
same,MST Replicates (a.u.),"IF2-bound 30S IC; mMF1, GTP 15.625 μM",1035.40 a.u. and 1041.45 a.u. and 1040.76 a.u.
same,MST Average,"IF2-bound 30S IC; mMF1, GTP 31.25 μM",1035.42 a.u.
same,MST Replicates (a.u.),"IF2-bound 30S IC; mMF1, GTP 31.25 μM",1032.74 a.u. and 1036.98 a.u. and 1036.55 a.u.
same,KD of GTP with mTufA lower than with mMF1,IF2-bound 30S IC; mTufA vs mMF1,about 2 fold
same,MST Average,"IF2-bound 30S IC; mTufA, GTP 0.244 μM",1017.37 a.u.
same,MST Average,"IF2-bound 30S IC; mTufA, GTP 1.953 μM",1082.32 a.u.
same,MST Average,"IF2-bound 30S IC; mTufA, GTP 3.906 μM",1097.99 a.u.
same,MST Replicates (a.u.),"IF2-bound 30S IC; mTufA, GTP 3.906 μM",1095.97 a.u. and 1098.36 a.u. and 1099.66 a.u.
same,MST Average,"IF2-bound 30S IC; mTufA, GTP 7.812 μM",1113.91 a.u.
same,MST Replicates (a.u.),"IF2-bound 30S IC; mTufA, GTP 7.812 μM",1111.40 a.u. and 1114.56 a.u. and 1115.76 a.u.
same,MST Average,"IF2-bound 30S IC; mTufA, GTP 15.625 μM",1117.61 a.u.
same,MST Replicates (a.u.),"IF2-bound 30S IC; mTufA, GTP 15.625 μM",1116.26 a.u. and 1117.65 a.u. and 1118.92 a.u.
same,MST Average,"IF2-bound 30S IC; mTufA, GTP 31.25 μM",1112.61 a.u.
same,MST Replicates (a.u.),"IF2-bound 30S IC; mTufA, GTP 31.25 μM",1112.94 a.u. and 1112.01 a.u. and 1112.88 a.u.
same,Kd,"IF2-bound 30S IC; nucleotide titration at constant IF2 (1 μM), read-out: KD for the IF2-bound 30S IC",500 ± 100 nM
same,MST Average,IF2; IF2 0.08 µM,945.53 a.u.
same,MST Replicates,IF2; IF2 0.08 µM,952.20 a.u. and 948.28 a.u. and 936.11 a.u.
same,MST Average,IF2; IF2 0.16 µM,947.39 a.u.
same,MST Replicates,IF2; IF2 0.16 µM,938.55 a.u. and 949.51 a.u. and 954.10 a.u.
same,MST Average,IF2; IF2 0.31 µM,948.97 a.u.
same,MST Replicates,IF2; IF2 0.31 µM,951.38 a.u. and 955.20 a.u. and 940.31 a.u.
same,MST Average,IF2; IF2 0.63 µM,950.03 a.u.
same,MST Replicates,IF2; IF2 0.63 µM,955.50 a.u. and 952.44 a.u. and 942.15 a.u.
same,MST Average,IF2; IF2 2.50 µM,955.81 a.u.
same,MST Replicates,IF2; IF2 2.50 µM,960.19 a.u. and 957.37 a.u. and 949.88 a.u.
same,MST Average,IF2; IF2 5.00 µM,963.92 a.u.
same,MST Replicates,IF2; IF2 5.00 µM,963.66 a.u. and 965.85 a.u. and 962.23 a.u.
same,MST Average,IF2; IF2 10.00 µM,973.12 a.u.
same,MST Replicates,IF2; IF2 10.00 µM,974.68 a.u. and 972.27 a.u. and 972.40 a.u.
same,MST Average,IF2; IF2 20.00 µM,982.93 a.u.
same,MST Replicates,IF2; IF2 20.00 µM,983.50 a.u. and 982.36 a.u.
same,MST Average,IF2; IF2 40.00 µM,989.70 a.u.
same,MST Replicates,IF2; IF2 40.00 µM,993.21 a.u. and 991.95 a.u. and 983.94 a.u.

# — PMC7010297, “How the initiating ribosome copes with ppGpp to translate mRNAs” (PLoS Biology, 2020)
